Data published in US20100035756A1, “TRIAZOLOPHYRIDINE DERIVATIVES AS HERBICIDES” (SYNGENTA LIMITED, priority 2006, published 2010).
Several values for one entry are separate records, joined by “and”; a condition that tells them apart may be missing. Equal entries are not always repeated.

Tests used:
[1] = test system: Monocotyledonous and dicotyledonous test plants; experiment: Herbicidal action after emergence of the plants (post-emergence herbicidal action), Example B2; type: in vivo; conditions: postemergent application, 125 g/ha, 2- to 3-leaf stage, evaluated after 2-3 weeks, 100%=total damage
Method: (§1) Monocotyledonous and dicotyledonous test plants are sown in seed trays in standard soil. When the test plants are at the 2- to 3-leaf stage, the test compounds are applied by spraying in the form of an aqueous suspension (prepared from a wettable powder (Example F3, b) according to WO 97/34485) or in the form of an emulsion (prepared from an emulsifiable concentrate (Example F1, c) according to WO 97/34485) in a concentration of 125 g/ha. The test plants are then grown on in a greenhouse under optimum conditions. After a 2- to 3-week test period, the test is evaluated (100%=total damage to plant; 0%=no damage to plant).

[2] = test system: Monocotyledonous and dicotyledonous test plants; experiment: Herbicidal action prior to emergence of the plants (pre-emergence action), Example B1; type: in vivo; conditions: preemergence application, 250 g/ha, evaluated after 4 weeks, 100%=total damage, 0%=no damage
Method: as §1, with “Immediately after sowing,” for “When the test plants are at the 2- to 3-leaf stage,”, “250” for “125”, “grown” for “grown on”, “4-week” for “2- to 3-week”, “plant; NC not evaluated).” for “plant).”

Compound	herbicidal damage, ABUTH [1]	herbicidal damage, AMARE [1]	herbicidal damage, CHEAL [1]	herbicidal damage, DIGSA [1]	herbicidal damage, SETFA [1]	herbicidal damage, SINAR [1]	herbicidal damage, VERPE [1]	herbicidal damage, XANST [1]	herbicidal damage, ABUTH [2]	herbicidal damage, AMARE [2]	herbicidal damage, BRAPL [2]	herbicidal damage, DIGSA [2]	herbicidal damage, ECHCG [2]	herbicidal damage, SETFA [2]	herbicidal damage, VERPE [2]	herbicidal damage, STEME [2]
O=C(C1=C(O)C2CCC(C2)C1=O)c1ccc(C(F)(F)F)n2c(Cl)nnc12 (stereo not drawn) [Compound 1.2]	90%	80%	80%	90%	90%	70%	70%	80%	100%	100%	100%	100%	100%	90%	70%	–
CC(C)c1nnc2c(C(=O)C3=C(O)C4CCC(C4)C3=O)ccc(C(F)(F)F)n12 (stereo not drawn) [Compound 1.7]	90%	90%	80%	80%	70%	80%	90%	80%	100%	100%	80%	100%	80%	80%	100%	100%
COCc1nnc2c(C(=O)C3=C(O)C4CCC(C4)C3=O)ccc(C(F)(F)F)n12 (stereo not drawn) [Compound 1.16]	80%	90%	80%	70%	70%	80%	80%	80%	100%	100%	70%	80%	100%	80%	50%	100%
Cc1nnc2c(C(=O)C3=C(O)C4CCC(C4)C3=O)ccc(C(F)F)n12 (stereo not drawn) [Compound 1.54]	70%	80%	70%	60%	50%	60%	60%	70%	20%	10%	40%	0%	0%	0%	20%	0%
CCOc1nnc2c(C(=O)C3=C(O)C4CCC(C4)C3=O)ccc(C(F)(F)F)n12 (stereo not drawn) [Compound 1.211]	70%	100%	80%	70%	80%	80%	80%	80%	30%	100%	100%	70%	70%	30%	90%	80%
CCSc1nnc2c(C(=O)C3=C(O)C4CCC(C4)C3=O)ccc(C(F)(F)F)n12 (stereo not drawn) [Compound 1.212]	80%	80%	80%	80%	80%	80%	80%	80%	70%	100%	60%	70%	50%	80%	0%	70%
O=C1CCCC(O)=C1C(=O)c1ccc(C(F)(F)F)n2c(Br)nnc12 [Compound 3.3]	70%	70%	80%	70%	30%	70%	80%	80%	100%	100%	0%	0%	0%	0%	30%	70%
CCc1nnc2c(C(=O)C3=C(O)CCCC3=O)ccc(C(F)(F)F)n12 [Compound 3.5]	90%	100%	90%	80%	70%	80%	90%	80%	100%	70%	80%	90%	70%	90%	30%	60%
CC(C)c1nnc2c(C(=O)C3=C(O)CCCC3=O)ccc(C(F)(F)F)n12 [Compound 3.6]	80%	70%	90%	70%	70%	90%	100%	90%	90%	70%	60%	90%	90%	50%	20%	20%
O=C1CCCC(O)=C1C(=O)c1ccc(C(F)(F)F)n2c(C3CC3)nnc12 [Compound 3.7]	80%	90%	70%	80%	80%	90%	80%	80%	30%	30%	30%	30%	10%	10%	10%	20%
CC(C)c1nnc2c(C(=O)C3=C(O)C(C)(C)C(=O)C(C)(C)C3=O)ccc(C(F)(F)F)n12 [Compound 5.4]	80%	90% and 70%	80%	–	50%	70% and 80%	80% and 90%	70% and 90%	100%	100%	100%	60%	40%	30%	100%	100%
COCc1nnc2c(C(=O)C3=C(O)C(C)(C)C(=O)C(C)(C)C3=O)ccc(C(F)(F)F)n12 [Compound 5.5]	80%	90%	80%	10%	50%	70%	80%	70%	–	60%	20%	10%	60%	20%	90%	70%
